This assay has as its system HCV 1b-377-neo replicon cells. Put plainly: HCV replicon assay, HCV 1b-377-neo replicon cells (1b FRET). In kind it is cell-based, Hepatitis C virus genotype 1b. To be noted: Hepatitis C virus, HCV 1b-377-neo replicon cells; HCV 1b genotype; read-out: EC50 range against HCV 1b (Table 2, Range). In outline: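 Compounds tested in HCV genotype 1b-377-neo replicon cells with a FRET read-out. Cells resistant to a reference NS5A inhibitor through a Y2065H NS5A mutation were run alongside wild-type cells.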
Background: A replicon is a self-replicating genome or part of one, used to study replication in cells.
As a reminder, the EC50 is the concentration giving half of the maximal effect. As to `CC(C)(C)OC(=O)N[C@H]1CC[C@@H](C(=O)N2CCC[C@H]2c2ncc(-c3ccc(-c4ccc(-c5cnc([C@@H]6CCCN6C(=O)[C@@H](c6ccccc6)N6CCCCC6)[nH]5)cc4)cc3)[nH]2)CC1` [Example 107-13, tert-butyl (cis-4-(((2S)-2-(5-(4′-(2-((2S)-1-((2R)-2-phenyl-2-(1-piperidinyl)acetyl)-2-pyrrolidinyl)-1H-imidazol-5-yl)-4-biphenylyl)-1H-imidazol-2-yl)-1-pyrrolidinyl)carbonyl)cyclohexyl) carbamate], the EC50 is 0.001 to 0.999 nM.

On to `COC(=O)N[C@@H](C(=O)N1CCC[C@H]1c1ncc(-c2ccc(-c3ccc(-c4cnc([C@@H]5CCCN5C(=O)C(c5cccc(C(F)(F)F)c5)N(C)C)[nH]4)cc3)cc2)[nH]1)c1ccccc1` (stereo partly drawn) [Example 84-54, methyl ((1R)-2-((2S)-2-(5-(4′-(2-((2S)-1-((dimethylamino)(3-(trifluoromethyl)phenyl)acetyl)-2-pyrrolidinyl)-1H-imidazol-5-yl)-4-biphenylyl)-1H-imidazol-2-yl)-1-pyrrolidinyl)-2-oxo-1-phenylethyl)carbamate], for which the EC50 was in the range of 0.001 to 0.999 nM.

`COC(=O)N[C@H](C(=O)N1CCC[C@H]1c1ncc(-c2ccc(-c3ccc(-c4cnc([C@@H]5CCCN5C(=O)[C@@H](NC(=NC#N)N(C)C)C(C)C)[nH]4)cc3)cc2)[nH]1)C(C)C` [cj-17, methyl ((1S)-1-(((2S)-2-(5-(4′-(2-((2S)-1-(N-(cyano(dimethyl)carbamimidoyl)-L-valyl)-2-pyrrolidinyl)-1H-imidazol-5-yl)-4-biphenylyl)-1H-imidazol-2-yl)-1-pyrrolidinyl)carbonyl)-2-methylpropyl)carbamate]: the EC50 is 0.001 to 0.999 nM.

For the compound `COC(=O)N[C@@H](C(=O)N1CCC[C@H]1c1ncc(-c2ccc(-c3ccc(-c4cnc([C@@H]5CCCN5C(=O)[C@@H](C)O)[nH]4)cc3)cc2)[nH]1)c1ccccc1` [Example 35, methyl ((1R)-2-((2S)-2-(5-(4′-(2-((2S)-1-((2R)-2-hydroxypropanoyl)-2-pyrrolidinyl)-1H-imidazol-5-yl)-4-biphenylyl)-1H-imidazol-2-yl)-1-pyrrolidinyl)-2-oxo-1-phenylethyl)carbamate], the half-maximal effective concentration (EC50) is 0.001 to 0.999 nM.

As for `COCC[C@H](NC(=O)OC)C(=O)N1CCC[C@H]1c1ncc(-c2ccc(-c3ccc(-c4cnc([C@@H]5CCCN5C(=O)[C@@H](NC(=O)OC)C(C)C)[nH]4)cc3)cc2)[nH]1` [cj-119, methyl ((1S)-1-(((2S)-2-(5-(4′-(2-((2S)-1-(N-(methoxycarbonyl)-O-methyl-L-homoseryl)-2-pyrrolidinyl)-1H-imidazol-5-yl)-4-biphenylyl)-1H-imidazol-2-yl)-1-pyrrolidinyl)carbonyl)-2-methylpropyl)carbamate], the EC50 lay within 0.001 to 0.999 nM.

On to `COC(=O)N[C@H](C(=O)N1CCC[C@@H]1c1ncc(-c2ccc(-c3ccc(-c4cnc([C@@H]5CCCN5C(=O)[C@@H](NC(=O)OC)C(C)C)[nH]4)cc3)cc2)[nH]1)C(C)C` [Example M28-2, methyl ((1S)-1-(((2S)-2-(5-(4′-(2-((2R)-1-((2S)-2-((methoxycarbonyl)amino)-3-methylbutanoyl)-2-pyrrolidinyl)-1H-imidazol-5-yl)-4-biphenylyl)-1H-imidazol-2-yl)-1-pyrrolidinyl)carbonyl)-2-methylpropyl)carbamate], for which the EC50 was in the range of 100 to 999 nM.

On to `COC(=O)N[C@H](C(=O)N1CCC[C@H]1c1ncc(-c2ccc(-c3ccc(-c4nc([C@@H]5CCCN5C(=O)[C@@H](NC(=O)OC)C(C)C)[nH]c4C)cc3)cc2)[nH]1)C(C)C` [Example E5e, methyl ((1S)-1-(((2S)-2-(4-(4′-(2-((2S)-1-((2S)-2-((methoxycarbonyl)amino)-3-methylbutanoyl)-2-pyrrolidinyl)-1H-imidazol-4-yl)-4-biphenylyl)-5-methyl-1H-imidazol-2-yl)-1-pyrrolidinyl)carbonyl)-2-methylpropyl)carbamate], for which the EC50 lay within 0.001 to 0.999 nM.

With `CCN(CC)[C@@H](COC)C(=O)N1CCC[C@H]1c1ncc(-c2ccc(-c3ccc(-c4cnc([C@@H]5CCCN5C(=O)[C@@H](NC(=O)OC)C(C)C)[nH]4)cc3)cc2)[nH]1` [Example M88, methyl ((1S)-1-(((2S)-2-(5-(4′-(2-((2S)-1-(N,N-diethyl-O-methyl-L-seryl)-2-pyrrolidinyl)-1H-imidazol-5-yl)-4-biphenylyl)-1H-imidazol-2-yl)-1-pyrrolidinyl)carbonyl)-2-methylpropyl)carbamate], the EC50 was in the range of 1 to 99 nM.

As for `COC(=O)N[C@@H](C(=O)N1CCC[C@H]1c1ncc(-c2ccc(-c3ccc(-c4cnc([C@@H]5CCCN5C(=O)[C@@H]5Cc6ccc(O)cc6CN5)[nH]4)cc3)cc2)[nH]1)c1ccccc1` [Example 84-20, methyl ((1R)-2-((2S)-2-(5-(4′-(2-((2S)-1-(((3S)-7-hydroxy-1,2,3,4-tetrahydro-3-isoquinolinyl)carbonyl)-2-pyrrolidinyl)-1H-imidazol-5-yl)-4-biphenylyl)-1H-imidazol-2-yl)-1-pyrrolidinyl)-2-oxo-1-phenylethyl)carbamate], the EC50 lay in the range of 1 to 99 nM.

In the case of `COC(=O)N[C@H](C(=O)N1CCC[C@H]1c1ncc(-c2ccc(-c3ccc(-c4cnc([C@@H]5CCCN5C(=O)CNCC(C)C)[nH]4)cc3)cc2)[nH]1)C(C)C` [LS23, methyl ((1S)-1-(((2S)-2-(5-(4′-(2-((2S)-1-(N-isobutylglycyl)-2-pyrrolidinyl)-1H-imidazol-5-yl)-4-biphenylyl)-1H-imidazol-2-yl)-1-pyrrolidinyl)carbonyl)-2-methylpropyl)carbamate], the EC50 lay within 0.001 to 0.999 nM.

As to `COC(=O)N[C@@H](C)C(=O)N1CCC[C@H]1c1ncc(-c2ccc(-c3ccc(-c4cnc([C@@H]5CCCN5C(=O)C(c5ccccc5)N5C6CCC5CC6)[nH]4)cc3)cc2)[nH]1` (stereo partly drawn) [Example M97, methyl ((1S)-2-((2S)-2-(5-(4′-(2-((2S)-1-(7-azabicyclo[2.2.1]hept-7-yl(phenyl)acetyl)-2-pyrrolidinyl)-1H-imidazol-5-yl)-4-biphenylyl)-1H-imidazol-2-yl)-1-pyrrolidinyl)-1-methyl-2-oxoethyl)carbamate], the EC50 is 1 to 99 nM.

Regarding `COC(=O)N[C@@H](C(=O)N1CCC[C@H]1c1ncc(-c2ccc(-c3ccc(-c4cnc([C@@H]5CCCN5C(=O)C5CCOC5)[nH]4)cc3)cc2)[nH]1)c1ccccc1` (stereo partly drawn) [Example 74, methyl ((1R)-2-oxo-1-phenyl-2-((2S)-2-(5-(4′-(2-((2S)-1-(tetrahydro-3-furanylcarbonyl)-2-pyrrolidinyl)-1H-imidazol-5-yl)-4-biphenylyl)-1H-imidazol-2-yl)-1-pyrrolidinyl)ethyl)carbamate], the EC50 is 0.001 to 0.999 nM.

Take `COC(=O)N[C@H](C(=O)N1CCC[C@H]1c1ncc(-c2ccc(-c3ccc(-c4cnc([C@H]5CCCN5C(=O)[C@H](NC(=O)OC)C(C)C)[nH]4)cc3)cc2)[nH]1)C(C)C` [Example M90, methyl ((1S)-1-(((2S)-2-(5-(4′-(2-((2R)-1-((2R)-2-((methoxycarbonyl)amino)-3-methylbutanoyl)-2-pyrrolidinyl)-1H-imidazol-5-yl)-4-biphenylyl)-1H-imidazol-2-yl)-1-pyrrolidinyl)carbonyl)-2-methylpropyl)carbamate]: the EC50 lay within 1000 to 10000 nM.

Consider `O=C([C@H](O)c1ccccc1)N1C[C@@H](O)C[C@H]1c1ncc(-c2ccc(-c3ccc(-c4cnc([C@@H]5C[C@H](O)CN5C(=O)[C@H](O)c5ccccc5)[nH]4)cc3)cc2)[nH]1` [Example 24-18, (3S,5S,3′S,5′S)-5,5′-(4,4′-biphenyldiylbis(1H-imidazole-5,2-diyl))bis(1-((2R)-2-hydroxy-2-phenylacetyl)-3-pyrrolidinol)], for which the EC50 was in the range of 0.001 to 0.999 nM.

With `COC(=O)N[C@@H](C(=O)N1CCC[C@H]1c1ncc(-c2ccc(-c3ccc(-c4[nH]c([C@@H]5CCCN5C(=O)[C@H](NC(=O)OC)c5ccccc5)nc4C(=O)O)cc3)cc2)[nH]1)c1ccccc1` [Example J30], the EC50 was 1 to 99 nM.

As to `CNC(=O)c1nc([C@@H]2CCCN2C(=O)[C@@H](c2ccccc2)N(C)C)[nH]c1-c1ccc(-c2ccc(-c3cnc([C@@H]4CCCN4C(=O)[C@@H](c4ccccc4)N(C)C)[nH]3)cc2)cc1` [Example J26], the 50% effective concentration (EC50) was 0.001 to 0.999 nM.

With `COC(=O)N[C@@H](C)C(=O)N1CCC[C@H]1c1ncc(-c2ccc(-c3ccc(-c4cnc([C@@H]5CCCN5C(=O)[C@H](Cc5ccccn5)NC(=O)OC)[nH]4)cc3)cc2)[nH]1` [cj-66, methyl ((1S)-2-((2S)-2-(5-(4′-(2-((2S)-1-(N-(methoxycarbonyl)-L-alanyl)-2-pyrrolidinyl)-1H-imidazol-5-yl)-4-biphenylyl)-1H-imidazol-2-yl)-1-pyrrolidinyl)-2-oxo-1-(2-pyridinylmethyl)ethyl)carbamate], the half-maximal effective concentration (EC50) was in the range of 0.001 to 0.999 nM.

For the compound `O=C(C(c1ccccc1)N1CCC(c2ccccc2)CC1)N1CCC[C@H]1c1ncc(-c2ccc(-c3ccc(-c4c[nH]c([C@@H]5CCCN5C(=O)[C@H]5CCCO5)n4)cc3)cc2)[nH]1` (stereo partly drawn) [Example 103-1, 1-(2-oxo-1-phenyl-2-((2S)-2-(5-(4′-(2-((2S)-1-((2R)-tetrahydro-2-furanylcarbonyl)-2-pyrrolidinyl)-1H-imidazol-4-yl)-4-biphenylyl)-1H-imidazol-2-yl)-1-pyrrolidinyl)ethyl)-4-phenylpiperidine], the EC50 fell in the range of 0.001 to 0.999 nM.

`CCN(CC)[C@@H](C)C(=O)N1CCC[C@H]1c1ncc(-c2ccc(-c3ccc(-c4cnc([C@@H]5CCCN5C(=O)[C@@H](NC(=O)OC)C(C)C)[nH]4)cc3)cc2)[nH]1` [Example M69, methyl ((1S)-1-(((2S)-2-(5-(4′-(2-((2S)-1-(N,N-diethyl-L-alanyl)-2-pyrrolidinyl)-1H-imidazol-5-yl)-4-biphenylyl)-1H-imidazol-2-yl)-1-pyrrolidinyl)carbonyl)-2-methylpropyl)carbamate]: the concentration giving a half-maximal response (EC50) is 100 to 999 nM.

For the origin of these results see patent publication US8574563B2 (Bristol-Myers Squibb Company, priority 2006, dated 2013).
